How the values were obtained:
Test in all cases: Bliss excess, mean over the matrix (fraction); higher = more synergy
[1] = system: EN (Endometrial Carcinoma)
Procedure, shortened: (§1)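 After 24 hours at 37°C and 5% CO2 in 1536-well plates, cells in DMEM/F12 or RPMI plus 10% FBS received two-drug dose matrices for 72 hours. Viability came from CellTiter-Glo 2.0 luminescence and was scaled as inhibition, anchored at 0 by vehicle wells and at 1 by blank wells. Combination Emax is taken as the second-highest inhibition in the matrix, and Bliss excess as the observed combination effect less EA + EB − EA·EB, with EA and EB the single-agent effects.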

NCI-H2795 (Mesothelioma) = system: NCI-H2795 (Mesothelioma)
Procedure, shortened: as §1

[2] = system: CAPAN-1 (Pancreatic Carcinoma)
Procedure, shortened: as §1

[3] = system: NCI-H69 (Small Cell Lung Carcinoma)
Procedure, shortened: as §1

[4] = system: 8305C (Thyroid Gland Carcinoma)
Procedure, shortened: as §1

[5] = system: SK-OV-3 (Ovarian Carcinoma)
Procedure, shortened: as §1

[6] = system: MDA-MB-468 (Breast Carcinoma)
Procedure, shortened: as §1

[7] = system: CAL-54 (Kidney Carcinoma)
Procedure, shortened: as §1

[8] = system: RPMI-6666 (Non-Cancerous)
Procedure, shortened: as §1

[9] = system: SW1271 (Small Cell Lung Carcinoma)
Procedure, shortened: as §1

SH-4 (Melanoma) = system: SH-4 (Melanoma)
Procedure, shortened: as §1

[10] = system: PCI-30 (Head and Neck Carcinoma)
Procedure, shortened: as §1

[11] = system: SW626 (Colorectal Carcinoma)
Procedure, shortened: as §1

[12] = system: LB771-HNC (Head and Neck Carcinoma)
Procedure, shortened: as §1

[13] = system: NCI-H747 (Colorectal Carcinoma)
Procedure, shortened: as §1

[14] = system: KYSE-410 (Esophageal Squamous Cell Carcinoma)
Procedure, shortened: as §1

[15] = system: CAL-51 (Breast Carcinoma)
Procedure, shortened: as §1

COLO-829 (Melanoma) = system: COLO-829 (Melanoma)
Procedure, shortened: as §1

[16] = system: KARPAS-231 (B-Cell Non-Hodgkin's Lymphoma)
Procedure, shortened: as §1

SMILES | Bliss excess [1] | Bliss excess (NCI-H2795 (Mesothelioma)) | Bliss excess [2] | Bliss excess [3] | Bliss excess [4] | Bliss excess [5] | Bliss excess [6] | Bliss excess [7] | Bliss excess [8] | Bliss excess [9] | Bliss excess (SH-4 (Melanoma)) | Bliss excess [10] | Bliss excess [11] | Bliss excess [12] | Bliss excess [13] | Bliss excess [14] | Bliss excess [15] | Bliss excess (COLO-829 (Melanoma)) | Bliss excess [16]
C=CCn1c(=O)c2cnc(Nc3ccc(N4CCN(C)CC4)cc3)nc2n1-c1cccc(C(C)(C)O)n1 [AZD1775] + CCc1c2c(nc3ccc(O)cc13)-c1cc3c(c(=O)n1C2)COC(=O)[C@]3(O)CC [SN-38] (first compound max 1 µM, partner max 0.3 µM) | 0.0209 | -0.0951 | -0.0635 | -0.0629 | -0.0536 | -0.0557 | -0.0811 | -0.0327 | -0.048 | -0.0391 | -0.072 | 0.0013 | – | – | – | – | – | – | –
Cn1cnc2c(F)c(Nc3ccc(Br)cc3Cl)c(C(=O)NOCCO)cc21 [Selumetinib] + C=CCn1c(=O)c2cnc(Nc3ccc(N4CCN(C)CC4)cc3)nc2n1-c1cccc(C(C)(C)O)n1 [AZD1775] (first compound max 10 µM, partner max 1 µM) | -0.126 | -0.0298 | -0.0399 | -0.0312 | -0.0383 | -0.0656 | – | -0.076 | 0.023 | -0.0806 | -0.0546 | -0.0183 | -0.0577 | -0.0937 | -0.0761 | 0.0543 | -0.0175 | -0.0734 | -0.0167
COc1nnc2ccc(N3CCC(c4ccc(OCCN5CCN(C)C(=O)[C@H]5C)cc4)CC3)nn12 [AZD5153] + C[C@@H]1COCCN1C2=NC(=NC(=C2)C3(CC3)[S@](=N)(=O)C)C4=C5C=CNC5=NC=C4 [AZD6738] (first compound max 1 µM, 7x7, partner max 10 µM) | 0.0191 | 0.0037 | -0.022 | 0.0358 | -0.0088 | -0.0285 | – | -0.0043 | -0.17 | -0.0204 | -0.0438 | -0.014 | 0.054 | 0.0467 | 0.0079 | 0.041 | 0.0189 | -0.0138 | -0.0609
COc1cc2ncnc(Nc3ccc(F)c(Cl)c3)c2cc1OCCCN1CCOCC1 [Gefitinib] + CC(C)n1c(=O)n(C)c2cnc3cc(F)c(-c4ccc(OCCCN5CCCCC5)nc4)cc3c21 [AZD1390] (first compound max 10 µM, 7x7, partner max 0.3 µM) | -0.0318 | -0.0631 | -0.0286 | -0.0122 | -0.147 | -0.0442 | – | -0.0718 | -0.0657 | -0.0388 | -0.0669 | -0.0871 | -0.0777 | -0.0648 | -0.0986 | -0.0779 | -0.0485 | -0.0599 | -0.0423
Cn1cnc2c(F)c(Nc3ccc(Br)cc3Cl)c(C(=O)NOCCO)cc21 [Selumetinib] + CC(C)n1c(=O)n(C)c2cnc3cc(F)c(-c4ccc(OCCCN5CCCCC5)nc4)cc3c21 [AZD1390] (first compound max 10 µM, 7x7, partner max 0.3 µM) | -0.0086 | -0.0439 | -0.0537 | -0.0305 | -0.057 | -0.0088 | – | -0.0377 | -0.0234 | 0.0379 | -0.0993 | -0.0208 | -0.0121 | -0.067 | -0.0334 | -0.0327 | -0.0271 | -0.0578 | -0.0101
CS(=O)(=O)CCNCc1ccc(-c2ccc3ncnc(Nc4ccc(OCc5cccc(F)c5)c(Cl)c4)c3c2)o1 [Lapatinib] + NC1(c2ccc(-c3nc4ccn5c(=O)[nH]nc5c4cc3-c3ccccc3)cc2)CCC1 [MK-2206] (first compound max 10 µM, 7x7, partner max 10 µM) | -0.0024 | 0.0513 | -0.016 | 0.0389 | 0.118 | 0.0257 | 0.0008 | -0.0009 | 0.0164 | 0.0083 | 0.0025 | -0.0005 | – | – | -0.126 | – | – | -0.0245 | –
C[C@@H](c1ccc2nccn2c1)n1nnc2ncc(-c3cnn(C)c3)nc21 [Savolitinib] + Cc1c2c(nn1C)CSCc1cc(n(C)n1)CSc1cc(c3ccccc3c1)OCCCc1c(C(=O)O)n(C)c3c-2c(Cl)ccc13 [AZD5991] (first compound max 1 µM, 7x7, partner max 1 µM) | -0.0027 | 0.008 | -0.0702 | -0.0269 | -0.0781 | -0.0556 | – | -0.0337 | -0.0329 | -0.0415 | -0.0252 | -0.0878 | 0.0147 | -0.054 | -0.0465 | -0.0749 | -0.0115 | -0.0075 | -0.0258
CS(=O)(=O)CCNCc1ccc(-c2ccc3ncnc(Nc4ccc(OCc5cccc(F)c5)c(Cl)c4)c3c2)o1 [Lapatinib] + Cn1cnc2c(F)c(Nc3ccc(Br)cc3Cl)c(C(=O)NOCCO)cc21 [Selumetinib] (first compound max 10 µM, 7x7, partner max 10 µM) | -0.0829 | -0.0488 | -0.0664 | -0.0384 | -0.0297 | -0.0287 | -0.0835 | 0.0022 | 0.0204 | -0.0167 | -0.0519 | 0.0027 | – | – | – | – | – | – | –
